Measured values published in patent US20200237766A1, “PKM2 ACTIVATORS IN COMBINATION WITH REACTIVE OXYGEN SPECIES FOR TREATMENT OF CANCER” (TOLERO PHARMACEUTICALS, INC., priority 2017, published 2020).
Like-named read-outs stand apart in the source and are kept apart here.

Molecular target: PKM2 (Homo sapiens, UniProt P14618)
Experiment: PKM2 activation biochemical assay (AC50 / max. response vs fructose 1,6-bisphosphate)
Conditions: for Max. Resp. (%): % maximum response in a biochemical assay as compared with Fructose 1,6-bisphosphate
[1] = biochemical assay, read-out: PKM2 AC50

Chain of PKM2 (P14618 whole entry): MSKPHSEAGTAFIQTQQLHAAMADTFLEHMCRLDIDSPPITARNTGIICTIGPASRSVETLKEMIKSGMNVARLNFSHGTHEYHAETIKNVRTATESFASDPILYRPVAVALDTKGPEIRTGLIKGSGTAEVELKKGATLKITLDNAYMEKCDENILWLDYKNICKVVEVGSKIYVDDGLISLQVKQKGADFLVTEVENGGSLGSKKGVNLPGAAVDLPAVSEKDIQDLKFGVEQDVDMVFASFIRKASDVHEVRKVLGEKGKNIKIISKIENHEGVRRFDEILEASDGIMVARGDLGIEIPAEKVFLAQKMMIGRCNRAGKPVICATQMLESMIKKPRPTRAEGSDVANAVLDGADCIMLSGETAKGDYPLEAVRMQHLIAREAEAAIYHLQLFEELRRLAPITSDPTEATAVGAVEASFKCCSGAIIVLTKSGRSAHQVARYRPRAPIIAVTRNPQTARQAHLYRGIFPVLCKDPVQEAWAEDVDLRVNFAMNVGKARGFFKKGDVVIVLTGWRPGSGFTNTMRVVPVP

O=C(c1cc(C(F)(F)F)n[nH]1)N(CCC1CCSCC1)Cc1ccccc1Cl [Compound 73]
Max. Resp. (%): 79%
AC50 [1]: 1340 nM

O=C(c1cc(C(F)(F)F)n[nH]1)N(CCC1CC[S+]([O-])CC1)Cc1ccccc1Cl (stereo not shown) [Compound 74]
Max. Resp. (%): 95%
AC50 [1]: 640 nM

O=C(c1cc(C(F)(F)F)n[nH]1)N(CCC1CCS(=O)(=O)CC1)Cc1ccccc1Cl [Compound 75]
Max. Resp. (%): 102%
AC50 [1]: 188 nM

O=C(c1cc(C(F)(F)F)n[nH]1)N(CCC1CCS(=O)(=O)C1)Cc1ccc(O)cc1F (stereo not shown) [Compound 76]
Max. Resp. (%): 93%
AC50 [1]: 54 nM

Nc1ccccc1CN(CCC1CCS(=O)(=O)C1)C(=O)c1cc(C(F)(F)F)n[nH]1 (stereo not shown) [Compound 77]
AC50: 34800 nM
Max. Resp. (%): 43%

O=C(c1cc(C(F)(F)F)n[nH]1)N(CCC1CCS(=O)(=O)CC1)Cc1ccccc1Cl [Compound 78]
AC50 [1]: 485 nM

O=C(c1cc(C(F)(F)F)n[nH]1)N(CCC1CCSCC1)Cc1ccccc1F [Compound 79]
Max. Resp. (%): 95%
AC50 [1]: 1190 nM

O=C(c1cc(Cl)n[nH]1)N(CCC1CCSCC1)Cc1ccccc1F [Compound 80]
AC50: 1300 nM
Max. Resp. (%): 46%

O=C(c1cc(Cl)n[nH]1)N(CCC1CCS(=O)(=O)CC1)Cc1ccccc1F [Compound 81]
AC50: 1370 nM
Max. Resp. (%): 72%

O=C(c1cc(Br)n[nH]1)N(CCC1CCSCC1)Cc1ccccc1F [Compound 82]
Max. Resp. (%): 74%
AC50 [1]: 1370 nM

O=C(c1cc(Br)n[nH]1)N(CCC1CCS(=O)(=O)CC1)Cc1ccccc1F [Compound 83]
Max. Resp. (%): 98%
AC50 [1]: 1100 nM

O=C(c1cc(C(F)(F)F)n[nH]1)N(CCC1CCSCC1)Cc1c(F)cccc1F [Compound 84]
Max. Resp. (%): 73%
AC50 [1]: 697 nM

O=C(c1cc(C(F)(F)F)n[nH]1)N(CCC1CCS(=O)(=O)CC1)Cc1c(F)cccc1F [Compound 85]
Max. Resp. (%): 100%
AC50 [1]: 64 nM

O=C(c1cc(C(F)(F)F)n[nH]1)N(CCC1CCSCC1)Cc1ccc(O)cc1F [Compound 86]
Max. Resp. (%): 98%
AC50 [1]: 93 nM

O=C(c1cc(C(F)(F)F)n[nH]1)N(CCC1CCS(=O)(=O)CC1)Cc1ccc(O)cc1F [Compound 87]
Max. Resp. (%): 100%
AC50 [1]: 64 nM

O=C(c1cc(C(F)(F)F)n[nH]1)N(CCC1CCS(=O)(=O)C1)Cc1ccccn1 (stereo not shown) [Compound 88]
Max. Resp. (%): 96%
AC50 [1]: 3600 nM

O=C(c1cc(C(F)(F)F)n[nH]1)N(CCC1CCS(=O)(=O)C1)Cc1ccncc1 (stereo not shown) [Compound 89]
Max. Resp. (%): 35%
AC50 [1]: 58000 nM

O=C(c1cc(C(F)(F)F)n[nH]1)N(CCC1CCS(=O)(=O)C1)Cc1cccnc1 (stereo not shown) [Compound 90]
Max. Resp. (%): 24%
AC50 [1]: 52000 nM

O=C(c1cc(C(F)(F)F)n[nH]1)N(CCC1CCS(=O)(=O)C1)Cc1ncccc1Cl (stereo not shown) [Compound 92]
Max. Resp. (%): 74%
AC50 [1]: 1290 nM

O=C(c1cc(C(F)(F)F)n[nH]1)N(CCC1CCS(=O)(=O)C1)Cc1cncs1 (stereo not shown) [Compound 93]
AC50: 49000 nM
Max. Resp. (%): 26%

O=C(c1cc(C(F)(F)F)n[nH]1)N(CCC1CCS(=O)(=O)C1)Cc1cccc([N+](=O)[O-])c1Cl (stereo not shown) [Compound 94]
Max. Resp. (%): 69%
AC50 [1]: 2380 nM

O=C(c1cc(C(F)(F)F)n[nH]1)N(CCC1CCNCC1)Cc1ccccc1F [Compound 98]
AC50: 2050 nM
Max. Resp. (%): 56%

CS(=O)(=O)N1CCC(CCN(Cc2ccccc2F)C(=O)c2cc(C(F)(F)F)n[nH]2)CC1 [Compound 99]
Max. Resp. (%): 100%
AC50 [1]: 110 nM

CN1CCC(CN(Cc2ccccc2F)C(=O)c2cc(C(F)(F)F)n[nH]2)CC1 [Compound 100]
Max. Resp. (%): 29%
AC50 [1]: 101000 nM

CCN1CCC(CCN(Cc2ccccc2Cl)C(=O)c2cc(C(F)(F)F)n[nH]2)CC1 [Compound 101]
Max. Resp. (%): 96%
AC50 [1]: 1860 nM

CN1CCC(CCN(Cc2ccccc2Cl)C(=O)c2cc(C(F)(F)F)n[nH]2)CC1 [Compound 102]
Max. Resp. (%): 71%
AC50 [1]: 767 nM

CN1CCN(CCN(Cc2ccccc2F)C(=O)c2cc(C(F)(F)F)n[nH]2)CC1 [Compound 103]
AC50: 37000 nM
Max. Resp. (%): 42%

CN1CCN(CCN(Cc2ccccc2Cl)C(=O)c2cc(C(F)(F)F)n[nH]2)CC1 [Compound 104]
Max. Resp. (%): 63%
AC50 [1]: 17000 nM

CCN1CCC(CCN(Cc2c(Cl)cccc2Cl)C(=O)c2cc(C(F)(F)F)n[nH]2)CC1 [Compound 105]
Max. Resp. (%): 71%
AC50 [1]: 3270 nM

CCN1CCN(CCN(Cc2ccccc2F)C(=O)c2cc(C(F)(F)F)n[nH]2)CC1 [Compound 106]
Max. Resp. (%): 115%
AC50 [1]: 6300 nM

O=C(c1cc(C(F)(F)F)n[nH]1)N(CCN1CCS(=O)(=O)CC1)Cc1ccccc1Cl [Compound 107]
Max. Resp. (%): 85%
AC50 [1]: 873 nM

O=C(c1cc(C(F)(F)F)n[nH]1)N(CCN1CCS(=O)(=O)CC1)Cc1ccccc1F [Compound 108]
AC50: 7800 nM
Max. Resp. (%): 92%

O=C(c1cc(C(F)(F)F)n[nH]1)N(CCN1CCS(=O)(=O)CC1)Cc1c(F)cccc1F [Compound 109]
Max. Resp. (%): 94%
AC50 [1]: 4200 nM

O=C(c1cc(C(F)(F)F)n[nH]1)N(CCN1CCS(=O)(=O)CC1)Cc1c(Cl)cccc1Cl [Compound 110]
Max. Resp. (%): 84%
AC50 [1]: 1640 nM

O=C(c1cc(C(F)(F)F)n[nH]1)N(CCN1CCS(=O)(=O)CC1)Cc1cccc(F)c1F [Compound 111]
Max. Resp. (%): 64%
AC50 [1]: 13100 nM

Nc1cccc(CN(CCN2CCS(=O)(=O)CC2)C(=O)c2cc(C(F)(F)F)n[nH]2)c1 [Compound 112]
Max. Resp. (%): 91%
AC50 [1]: 1070 nM

CC[C@](C)(N)C(=O)Oc1ccc(CN(CC2CCC2)C(=O)c2cc(Cl)n[nH]2)c(F)c1 [Compound 115]
Max. Resp. (%): 104%
AC50 [1]: 98 nM

O=C(c1cc(Cl)n[nH]1)N(Cc1ccncc1F)CC1CCC1 [Compound 116]
AC50 [1]: 38000 nM

CN(C)Cc1c[nH]c2cccc(CN(CC3CCC3)C(=O)c3cc(Cl)n[nH]3)c12 [Compound 118]
Max. Resp. (%): 100%
AC50 [1]: 7000 nM

O=C(c1cc(Cl)n[nH]1)N(Cc1cccc2[nH]cnc12)CC1CCC1 [Compound 119]
Max. Resp. (%): 100%
AC50 [1]: 2930 nM

O=C(c1cc(Br)n[nH]1)N(Cc1cccc2[nH]cnc12)CC1CCC1 [Compound 120]
Max. Resp. (%): 100%

CNCc1c[nH]c2cccc(CN(CC3CCC3)C(=O)c3cc(Br)n[nH]3)c12 [Compound 121]
AC50: 23000 nM

O=C(c1cc(C(F)(F)F)n[nH]1)N(Cc1cccc2[nH]cnc12)CC1CCC1 [Compound 123]
AC50: 828 nM
Max. Resp. (%): 100%

O=C(c1cc(C(F)(F)F)n[nH]1)N(Cc1ccc(O)cc1Cl)CC1CCC1 [Compound 124]
Max. Resp. (%): 100%
AC50 [1]: 21 nM

O=C(c1cc(Br)n[nH]1)N(Cc1ccc(O)cc1Cl)CC1CCC1 [Compound 125]
Max. Resp. (%): 100%
AC50 [1]: 35 nM

O=C(c1cc(C(F)(F)F)n[nH]1)N(Cc1ccccc1Cl)CC1CCC1 [Compound 127]
AC50: 258 nM
Max. Resp. (%): 100%

O=C(c1cc(C(F)(F)F)n[nH]1)N(Cc1ccncc1Cl)CC1CCC1 [Compound 128]
Max. Resp. (%): 75%
AC50 [1]: 9300 nM

O=C(c1cc(C2CC2)n[nH]1)N(CCC(F)(F)F)Cc1ccc(O)cc1F [Compound 129]
AC50: 10500 nM

O=C(c1cc(C(F)(F)F)n[nH]1)N(CCC(F)(F)F)Cc1ccc(O)cc1F [Compound 130]
Max. Resp. (%): 100%
AC50 [1]: 1000 nM

O=C(c1cc(C(F)(F)F)n[nH]1)N(Cc1ccc(O)cc1F)C1CCCC1 [Compound 132]
Max. Resp. (%): 100%
AC50 [1]: 213 nM

NCCN(Cc1ccc(O)cc1F)C(=O)c1cc(C(F)(F)F)n[nH]1 [Compound 133]
Max. Resp. (%): 100%
AC50 [1]: 1270 nM

Nc1ccc(CN(CC2CCC2)C(=O)c2cc(C(F)(F)F)n[nH]2)c(Cl)c1 [Compound 134]
Max. Resp. (%): 100%
AC50 [1]: 1080 nM

O=C(c1cc(C(F)(F)F)n[nH]1)N(Cc1cccc2[nH]ccc12)NC1CCC1 [Compound 135]
Max. Resp. (%): 100%
AC50 [1]: 68 nM

O=C(c1cc(C(F)(F)F)n[nH]1)N(Cc1cccc(F)c1O)CC1CCC1 [Compound 136]
Max. Resp. (%): 100%
AC50 [1]: 380 nM

O=C(c1cc(C(F)(F)F)n[nH]1)N(CCO)Cc1ccc(O)cc1F [Compound 137]
Max. Resp. (%): 70%
AC50 [1]: 6200 nM

O=C(c1cc(C(F)(F)F)n[nH]1)N(Cc1ccc(O)cc1F)C1CCCCC1 [Compound 139]
Max. Resp. (%): 100%
AC50 [1]: 152 nM

O=C(c1cc(C(F)(F)F)n[nH]1)N(CCC1CC1)Cc1ccc(O)cc1F [Compound 140]
Max. Resp. (%): 100%
AC50 [1]: 32 nM

O=C(c1cc(C(F)(F)F)n[nH]1)N(Cc1cccc(Cl)c1O)CC1CCC1 [Compound 141]
Max. Resp. (%): 100%
AC50 [1]: 6500 nM

COCCN(Cc1ccc(O)cc1F)C(=O)c1cc(C(F)(F)F)n[nH]1 [Compound 142]
Max. Resp. (%): 100%
AC50 [1]: 1190 nM

CCN(CC)CCN(Cc1ccc(O)cc1F)C(=O)c1cc(C(F)(F)F)n[nH]1 [Compound 143]
Max. Resp. (%): 100%
AC50 [1]: 108 nM

O=C(c1cc(C(F)(F)F)n[nH]1)N(Cc1cn[nH]c1)Cc1cccc2[nH]cnc12 [Compound 144]
AC50 [1]: 25000 nM

NCc1ccccc1CN(CC1CCC1)C(=O)c1cc(C(F)(F)F)n[nH]1 [Compound 145]
AC50 [1]: 25500 nM

CCN(CC)CCN(Cc1ccccc1F)C(=O)c1cc(C(F)(F)F)n[nH]1 [Compound 148]
AC50: 505 nM
Max. Resp. (%): 100%

O=C(c1cc(C(F)(F)F)n[nH]1)N(CCC1CC1)Cc1ccccc1F [Compound 149]
Max. Resp. (%): 100%
AC50 [1]: 2000 nM

O=C(c1cc(C(F)(F)F)n[nH]1)N(Cc1ccccc1F)CC1CCOC1 (stereo not shown) [Compound 150]
Max. Resp. (%): 68%
AC50 [1]: 16000 nM

CCN1CCC(N(Cc2ccccc2F)C(=O)c2cc(C(F)(F)F)n[nH]2)C1 (stereo not shown) [Compound 152]
Max. Resp. (%): 68%
AC50 [1]: 13500 nM

O=C(c1cc(C(F)(F)F)n[nH]1)N(Cc1ccccc1F)C1CCCCC1 [Compound 153]
Max. Resp. (%): 57%
AC50 [1]: 19000 nM
